One test deals with T1, D4 human receptors (Homo sapiens, UniProt P21917).
T1 construct: expressed in transfected cells; host or cells: CHO cells
T1 sequence (P21917 1-419): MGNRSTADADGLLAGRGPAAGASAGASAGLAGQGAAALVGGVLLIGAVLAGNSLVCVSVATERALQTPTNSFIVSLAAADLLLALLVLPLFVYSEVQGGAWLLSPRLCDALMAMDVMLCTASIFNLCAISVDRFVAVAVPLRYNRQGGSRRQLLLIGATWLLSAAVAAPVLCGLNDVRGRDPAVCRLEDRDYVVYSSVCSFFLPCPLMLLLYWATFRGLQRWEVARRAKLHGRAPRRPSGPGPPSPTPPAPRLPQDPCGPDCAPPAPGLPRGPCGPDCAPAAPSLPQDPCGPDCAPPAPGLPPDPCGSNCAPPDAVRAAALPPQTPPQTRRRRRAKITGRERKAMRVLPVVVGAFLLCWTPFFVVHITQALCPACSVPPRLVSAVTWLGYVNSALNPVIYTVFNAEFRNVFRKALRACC
Description: D4 Radioligand Receptor Binding Assay ([3H] YM-09151-2, CHO cell membranes). The conditions noted are these: compound 10^−7 M, singlicate, [3H] YM-09151-2 0.15-0.25 nM. On the procedure:
D4 Radioligand Receptor Binding Assay
Membranes from CHO cells expressing D4 human receptors, were suspended in incubation buffer.
Binding assays were performed in MultiProbe 204 pipetting system (Packard), according to a predetermined mapping, consistent with the software Screen. The compounds were tested in singlicate at one concentration (10^−7 M) in a total volume of 1000 μl (980 μl of diluted membranes, 10 μl DMSO or unlabelled ligand and 10 μl of [^3H] YM-09151-2 (0.15-0.25 nM). After incubation for 120 minutes at 27° C., the reaction was stopped by rapid filtration through Tomtec Cell Harvester (48 wells) using Filtermat B (presoaked in 0.1% PEI) filters. Filters were washed with ice-cold 50 mM Tris-HCl (pH 7.4) buffer (9×700 μl), dried, covered with MeltiLex B/HS (Wallac) scintillator sheets and heated in oven at 80° C. to 90° C. for about 10 minutes, transferred into plastic sample bags (Wallac), sealed, and put into 1024 Beta Plate scintillation counter (Wallac). Non-specific binding was determined in the presence of clozapine dissolved in DMSO to a final concentration of 10^−5 M.
The specific radioligand binding to the receptor was defined by the difference between total binding and non-specific binding, determined in the presence of an excess of unlabelled ligand. Results were expressed as percentage of control specific binding obtained in the presence of the compounds.

For another test, the target named is T2, 5-HT1A (Homo sapiens, UniProt P08908).
T2 sequence (P08908 1-422): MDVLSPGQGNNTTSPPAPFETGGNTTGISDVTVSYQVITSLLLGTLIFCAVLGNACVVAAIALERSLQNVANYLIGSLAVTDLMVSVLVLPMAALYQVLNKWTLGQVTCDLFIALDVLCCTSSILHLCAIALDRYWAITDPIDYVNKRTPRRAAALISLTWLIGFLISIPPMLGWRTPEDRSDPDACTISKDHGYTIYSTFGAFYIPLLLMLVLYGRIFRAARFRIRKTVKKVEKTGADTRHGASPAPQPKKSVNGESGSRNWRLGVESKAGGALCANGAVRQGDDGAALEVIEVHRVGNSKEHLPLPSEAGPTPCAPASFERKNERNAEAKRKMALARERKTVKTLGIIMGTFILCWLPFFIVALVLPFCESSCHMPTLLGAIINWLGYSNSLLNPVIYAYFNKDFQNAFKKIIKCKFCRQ
Briefly: 5HT1A Radioligand Receptor Binding Assay ([3H]-8-OH-DPAT, CHO cell membranes). On the set-up: expressed in transfected cells; host or cells: CHO cells. The conditions noted are these: compound 10^−7 M, singlicate; [3H]-8-OH-DPAT 0.6-0.7 nM; CHO membranes, human 5-HT1A. The protocol: 5HT1A Radioligand Receptor Binding Assay
Membranes from CHO cells, expressing 5-HT1A human receptors were suspended in incubation buffer.
Binding assays were performed in MultiProbe 204 pipetting system (Packard), according to a predetermined mapping, consistent with the software Screen. The compounds were tested in singlicate at one concentration (10^−7 M) in a total volume of 1000 μl. 980 μl of diluted membranes, 10 μl DMSO or unlabelled ligand and 10 μl of [^3H]-8-OH-DPAT (0.6-0.7 nM) were incubated for 60 minutes at 27° C. The reaction was stopped by rapid filtration through Tomtec Cell Harvester (48 wells) using Filtermat B (presoaked in 0.1% PEI) filters. Filters were washed with ice-cold 50 mM Tris-HCl (pH 7.4) buffer (9×700 μl), dried, covered with MeltiLex B/HS scintillator sheets (Wallac) and heated at 80° C. to 90° C. for about 10 minutes, transferred into plastic sample bags (Wallac), sealed, and put into 1024 Beta Plate scintillation counter (Wallac). Non-specific binding was determined in the presence of 5-HT (10^−5 M).
The specific radioligand binding to the receptor was defined by the difference between total binding and non-specific binding, determined in the presence of an excess of unlabelled ligand. Results were expressed as percentage of control specific binding obtained in the presence of the compounds. The affinity values (IC50) for the compounds were obtained by a nonlinear least squares regression analysis on the basis of a one binding site model.

With `O=c1n(CCN2CC=C(c3ccccc3)CC2)c2ccccc2n1CCN1CCCCC1` [Compound 150], the “D4 Receptor Binding Assay % inhibition (10^−7 M)” value on D4 human receptors came to 52%. In addition, the “5-HT1A Receptor Binding Assay % inhibition (10^−7 M)” value on 5-HT1A was 57%.

Regarding `O=c1n(CCO)c2ccccc2n1CCCCN1CCN(c2ccc(Cl)c(Cl)c2)CC1` [Compound 66], the “D4 Receptor Binding Assay % inhibition (10^−7 M)” value on D4 human receptors was determined as 99%. Besides, the “5-HT1A Receptor Binding Assay % inhibition (10^−7 M)” value at 5-HT1A amounted to 65%.

On to `O=c1n(C/C=C/CN2CCN(c3ncccn3)CC2)c2ccccc2n1CCN1CCOCC1` [Compound 349], for which the “D4 Receptor Binding Assay % inhibition (10^−7 M)” value at D4 human receptors is 31%. In addition, the “5-HT1A Receptor Binding Assay % inhibition (10^−7 M)” value at 5-HT1A is on record as 73%.

Consider `O=c1n(CCCCN2CCN(c3cccc(C(F)(F)F)c3)CC2)c2ccccc2n1CCN1CCCCC1` [Compound 28], for which, on D4 human receptors, the “D4 Receptor Binding Assay % inhibition (10^−7 M)” value was found to be 35%. Besides, the “5-HT1A Receptor Binding Assay % inhibition (10^−7 M)” value on 5-HT1A was found to be 89%.

Consider `O=c1n(C/C=C/CN2CCN(c3ccccc3)CC2)c2ccccc2n1CCN1CCCCC1` [Compound 327], for which, at D4 human receptors, the “D4 Receptor Binding Assay % inhibition (10^−7 M)” value was 74%. Further, the “5-HT1A Receptor Binding Assay % inhibition (10^−7 M)” value on 5-HT1A is reported as 78%.

Regarding `CCNC(=O)OCCn1c(=O)n(CCCCN2CCN(c3cccc(C)c3)CC2)c2ccccc21` [Compound 94], the “D4 Receptor Binding Assay % inhibition (10^−7 M)” value on D4 human receptors was 72%. Besides, at 5-HT1A, the “5-HT1A Receptor Binding Assay % inhibition (10^−7 M)” value was 88%.

Take `COCCn1c(=O)n(CCCCN2CCN(c3ccc(Cl)c(Cl)c3)CC2)c2ccccc21` [Compound 11]: the “D4 Receptor Binding Assay % inhibition (10^−7 M)” value on D4 human receptors came to 90%. Besides, on 5-HT1A, the “5-HT1A Receptor Binding Assay % inhibition (10^−7 M)” value worked out at 48%.

Consider `O=c1n(CCN2CCCCC2)c2ccccc2n1CCN1CCN(c2cccc(C(F)(F)F)c2)CC1` [Compound 149], for which the “D4 Receptor Binding Assay % inhibition (10^−7 M)” value on D4 human receptors amounted to 35%. The “5-HT1A Receptor Binding Assay % inhibition (10^−7 M)” value at 5-HT1A was determined as 88%.

On to `CS(=O)(=O)NCCn1c(=O)n(C/C=C/CN2CCN(c3ccc(Cl)c(Cl)c3)CC2)c2ccccc21` [Compound 527], for which the “D4 Receptor Binding Assay % inhibition (10^−7 M)” value at D4 human receptors is on record as 36%. The “5-HT1A Receptor Binding Assay % inhibition (10^−7 M)” value at 5-HT1A amounted to 73%.

As for `O=c1n(C/C=C\CN2CCc3c([nH]c4ccccc34)C2)c2ccccc2n1CCO` [Compound 367], the “D4 Receptor Binding Assay % inhibition (10^−7 M)” value at D4 human receptors was determined as 90%. The “5-HT1A Receptor Binding Assay % inhibition (10^−7 M)” value on 5-HT1A was 61%.

For `COc1ccccc1N1CCN(CCn2c(=O)n(CCO)c3ccccc32)CC1` [Compound 197], on D4 human receptors, the “D4 Receptor Binding Assay % inhibition (10^−7 M)” value is listed as 43%. For the same compound, on 5-HT1A, the “5-HT1A Receptor Binding Assay % inhibition (10^−7 M)” value was 77%.

Take `COCCn1c(=O)n(CCN2CC=C(c3ccccc3)CC2)c2ccccc21` [Compound 169]: on D4 human receptors, the “D4 Receptor Binding Assay % inhibition (10^−7 M)” value stood at 58%. Moreover, the “5-HT1A Receptor Binding Assay % inhibition (10^−7 M)” value at 5-HT1A came to 85%.

As to `CCNC(=O)OCCn1c(=O)n(CCCCN2CCN(c3cccc(Cl)c3)CC2)c2ccccc21` [Compound 79], the “D4 Receptor Binding Assay % inhibition (10^−7 M)” value on D4 human receptors was 58%. The “5-HT1A Receptor Binding Assay % inhibition (10^−7 M)” value on 5-HT1A was found to be 86%.

On to `CCNC(=O)OCCn1c(=O)n(CCCCN2CC=C(c3ccccc3)CC2)c2ccccc21` [Compound 84], for which the “D4 Receptor Binding Assay % inhibition (10^−7 M)” value at D4 human receptors amounted to 42%. Further, at 5-HT1A, the “5-HT1A Receptor Binding Assay % inhibition (10^−7 M)” value is 52%.

With `O=c1n(CCO)c2ccccc2n1CCN1CCN(c2ccc(Cl)c(Cl)c2)CC1` [Compound 189], the “D4 Receptor Binding Assay % inhibition (10^−7 M)” value at D4 human receptors amounted to 99%. Also, the “5-HT1A Receptor Binding Assay % inhibition (10^−7 M)” value at 5-HT1A is reported as 54%.

Turning to `O=c1n(CCO)c2ccccc2n1CCN1CC=C(c2ccccc2)CC1` [Compound 188], at D4 human receptors, the “D4 Receptor Binding Assay % inhibition (10^−7 M)” value was determined as 78%. Besides, the “5-HT1A Receptor Binding Assay % inhibition (10^−7 M)” value on 5-HT1A was 78%.

`CCNC(=O)OCCn1c(=O)n(CCCCN2CCN(c3ccccc3OC)CC2)c2ccccc21` [Compound 93]: the “D4 Receptor Binding Assay % inhibition (10^−7 M)” value at D4 human receptors is reported as 62%. Besides, the “5-HT1A Receptor Binding Assay % inhibition (10^−7 M)” value on 5-HT1A stood at 94%.

With `O=c1n(C/C=C/CN2CCN(c3cccc(Cl)c3)CC2)c2ccccc2n1CCN1CCCCC1` [Compound 331], the “D4 Receptor Binding Assay % inhibition (10^−7 M)” value at D4 human receptors was 92%. Further, the “5-HT1A Receptor Binding Assay % inhibition (10^−7 M)” value at 5-HT1A stood at 100%.

Source of the values: patent publication US6521623B1, “N,N'-disubstituted benzimidazolone derivatives with affinity at the serotonin and dopamine receptors” (Boehringer Ingelheim Pharma KG, priority 2000, dated 2003).
